Structures can show the parent of a compound that is named as a salt. Where two headings read alike, the source gives them in different places.
Key:
[1] = biological target: T1, Cloned Human Serotonin Receptor, Subtype 7 (h5HT7) (Homo sapiens, UniProt P34969); assay: Radioligand binding 5HT7
T1 construct: purchased PerkinElmer 6120512; host or cells: CHO cells
Protocol: Radioligand binding assays were performed using the Cloned Human Serotonin Receptor, Subtype 7 (h5HT7), expressed in CHO cells, coated on Flashplate (Basic FlashPlate Cat.: SMP200) from PerkinElmer (Cat.: 6120512). The protocol assay was essentially the recommended protocol in the Technical Data Sheet by PerkinEmer Life and Analytical Sciences. The Mass membrane protein/well was typically 12 μg and the Receptor/well was about 9-10 fmoles. The Flashplate were let equilibrate at room temperature for one hour before the addition of the components of the assay mixture. The binding buffer was: 50 mM Tris-HCl, pH 7.4, containing 10 mM MgCl2, 0.5 mM EDTA and 0.5% BSA. The radioligand was [^125I]LSD at a final concentration of 0.82 nM. Nonspecific binding was determined with 50 μM of Clozapine. The assay volume was 25 μl. TopSeal-A were applied onto Flashplate microplates and they were incubated at room temperature for 240 minutes in darkness. The radioactivity were quantified by liquid scintillation spectrophotometry (Wallac 1450 Microbeta Trilux) with a count delay of 4 minutes prior to counting and a counting time of 30 seconds per well. Competition binding data were analyzed by using the LIGAND program (Munson and Rodbard, LIGAND: A versatile, computerized approach for characterization of ligand-binding systems. Anal. Biochem. 107: 220-239, 1980) and assays were performed in triplicate determinations for each point.

[2] = biological target: 5-HT6 (Homo sapiens, UniProt P50406); assay: 5-HT6 inhibition; type: binding; conditions: 10^−7M; as dihydrochloride; read-out: 5-HT6 inhib. (10^−7M) (%)
[3] = system: Male CD1 mice; assay: Tail Flick Test; type: in vivo
[4] = system: Male CD1 mice; conditions: day 5, morphine 4 mg/kg alone (vs Non-Tolerant) or + Chemical Example 1 10 mg/kg (vs morphine only)
Protocol: (§1) The mice were kept on the hot plate for no longer than 450 seconds in order to avoid the development of cutaneous lesions. The vehicle, the active substances and the inventive active substance combination to be tested were administered—sometimes in differing concentrations—by s.c. injection to different groups of mice. 0.5 hours after the administration the animals are put onto the hot plate and the time is measured until they show signs of pain, divided by Fore Paw Licking (FPL), Hind Paw Licking (HPL) and Jumping, to allow conclusions on differentiations of pain types through the different pain symptoms/signs of pain. The analgesic efficacy of the active substances or active substance combination is calculated on the basis of the values obtained for the comparison group of mice to which is only administered the vehicle (baseline). By comparing to baseline (defined as 0% analgesia) and to a failure of pain signs (defined as 100% analgesia) Percentage of analgesia was determined. In some cases based on this calculation and with different concentrations of the active substances or active substance combination ED50 values were determined.
Male CD1 Mice were divided in 2 groups, the group receiving s.c. injections of morphine in high doses to develop tolerance (hereinafter called Tolerants), and the group receiving only vehicle (called Non-Tolerants). The following treatment scheme was followed:
The mice were placed 30 minutes after injection on the hot plate heated to 50° C. The signs of pain shown were divided by Fore Paw Licking (FPL), Hind Paw Licking (HPL) and Jumping and measured/counted. The Baseline was determined based on saline injection. Significance values were determined vs. respective “non tolerant” group, the “Morphine-tolerant group” or the “Morphine-non tolerant group” with *** p<0.001 vs. respective “non tolerant” group, # # # p<0.001 vs. “Morphine-tolerant group” and α α α p<0.001 vs. “Morphine-non tolerant group” (Newman-Keuls Multiple Comparison Test post-ANOVA).

[5] = system: Male CD1 mice; conditions: day 5; morphine 4 mg/kg alone (vs Non-Tolerant) or + Chemical Example 1 10 mg/kg (vs morphine only); FIG. 12
Protocol: Briefly, the animals (male CD1 mice) were restrained in a Plexiglas tube and placed on the tail flick apparatus (LI 7100, Letica, S. A., Spain). A noxious beam of light was focussed on the tail, and the tail flick latency was recorded automatically to the nearest 0.1 s. The intensity of the radiant heat source was adjusted to yield baseline latencies between 2 and 3 s; this intensity was never changed and any animal whose baseline latency was outside the pre-established limits was excluded from the experiments. In order to minimise injury in the animals, a cut-off time of 10 s was used. The animals received an s.c. injection of the vehicle (saline), drug or drug combination under study, and tail flick latencies were measured and are measured at 45 min after drug or vehicle administration. Baseline tail flick latencies were recorded after saline/vehicle injection. By comparing to baseline (defined as 0% analgesia) and to a failure of pain reaction/tail flick (defined as 100% analgesia) Percentage of analgesia was determined.
Male CD1 Mice were divided in 2 groups, the group receiving s.c. injections of morphine in high doses to develop tolerance (hereinafter called Tolerants), and the group receiving only vehicle (called Non-Tolerants). […]
The mice were placed 45 minutes after injection in the tail-flick apparatus. The Baseline was determined based on saline injection. […]

[6] = system: Male CD1 mice; assay: animal or person; conditions: Mus musculus, sc
Protocol: Male CD1 mice aged from 6 to 8 weeks old were used in these studies. Animals were housed in groups of five, provided with food and water ad libitum and kept in controlled laboratory conditions with the temperature maintained at 21±1° C. and light in 12 h cycles (on at 07:00 h and off at 19:00 h). Experiments were carried out in a soundproof and air-regulated experimental room. The number of mice ranged from 8 to 16 per group in each individual experiment.
All the compounds were dissolved in physiological saline and administered in a volume of 5 ml/kg of body weight through the subcutaneous (s.c.) route. When compounds were co-administered, they were injected s.c. opposite flanks of the mice. The doses of drugs refer to their salt forms.
The analgesic activity of the inventive active substance combination is determined in male CD1 following and adapting the description in the publication of G. Woolfe and A. D. MacDonald, J. Pharm.
as §1

[7] = biological target: 5HT7 receptor (Homo sapiens, UniProt P34969); conditions: statement in the definitions; cited from earlier work
[8] = read-out: 5-HT7 %-Inhib. (10^−6 M)
[9] = read-out: 5-HT7 %-Inhib. (10^−7 M)
[10] = read-out: 5-HT7 %-Inhib. (10^−8 M)

T1 sequence (P34969 whole entry): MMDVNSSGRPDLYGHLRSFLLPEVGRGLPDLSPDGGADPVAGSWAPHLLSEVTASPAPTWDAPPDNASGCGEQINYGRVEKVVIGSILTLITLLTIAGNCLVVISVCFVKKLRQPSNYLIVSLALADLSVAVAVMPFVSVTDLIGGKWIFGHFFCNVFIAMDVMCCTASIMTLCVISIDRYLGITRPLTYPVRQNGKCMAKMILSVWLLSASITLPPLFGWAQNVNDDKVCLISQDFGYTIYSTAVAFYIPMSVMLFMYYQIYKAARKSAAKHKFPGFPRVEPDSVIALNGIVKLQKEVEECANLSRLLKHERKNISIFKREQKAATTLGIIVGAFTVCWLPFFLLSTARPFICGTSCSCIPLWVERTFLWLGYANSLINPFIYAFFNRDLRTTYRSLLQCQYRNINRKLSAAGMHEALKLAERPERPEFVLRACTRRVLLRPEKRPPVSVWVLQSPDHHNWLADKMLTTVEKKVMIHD
5HT7 receptor, sequence (P34969 whole entry): as above
5-HT6, sequence (P50406 whole entry, species assumed): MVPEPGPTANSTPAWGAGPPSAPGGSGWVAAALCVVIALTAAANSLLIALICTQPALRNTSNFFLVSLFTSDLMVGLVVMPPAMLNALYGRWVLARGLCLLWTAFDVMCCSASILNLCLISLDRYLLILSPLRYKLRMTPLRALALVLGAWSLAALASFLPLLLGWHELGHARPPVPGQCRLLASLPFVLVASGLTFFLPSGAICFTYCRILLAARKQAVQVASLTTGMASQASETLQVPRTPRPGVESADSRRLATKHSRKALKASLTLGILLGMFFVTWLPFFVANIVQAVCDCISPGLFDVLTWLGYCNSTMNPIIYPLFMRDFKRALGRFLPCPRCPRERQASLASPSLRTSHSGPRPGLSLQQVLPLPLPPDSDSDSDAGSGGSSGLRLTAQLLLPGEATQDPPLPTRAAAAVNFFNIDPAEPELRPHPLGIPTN

Row | Structure (SMILES) | inhibition at 0.1 µM ([1]; read-out: % Inh (10^−7 M)) [%] | inhibition at 0.01 µM ([1]; read-out: % Inh (10^−8 M)) [%] | inhibition at 1 µM ([1]; read-out: % Inh (10^−6 M)) [%] | further results
1 | Cc1nn(C)c(C)c1-c1cccc2c1CC[C@H](N(C)Cc1ccccc1)C2 [Chemical Example F, (2S)-Benzyl-methyl-[5-(1,3,5-trimethyl-1H-pyrazol-4-yl)-1,2,3,4-tetrahydro-naphthalen-2-yl]-amine] | – | – | – | inhibition at 1 µM [1, 8]: 110%; inhibition at 0.1 µM [1, 9]: 44.7%; inhibition at 0.01 µM [1, 10]: 16.3%
2 | Cc1nn(C)c(C)c1-c1cccc(CCN(C)C)c1 [Chemical Example 1] | 98.6 | 60.8 | – | inhibition at 0.1 µM [2]: 5.4%; effect on efficacy of a low dose of morphine, tail flick ([3]; 1.25, 2.5, 5 or 10 mg/kg s.c. + morphine 2 mg/kg (FIG. 9B)): increases in a dose-dependent manner; analgesic effect per se, tail flick ([3]; 1.25, 2.5, 5 or 10 mg/kg s.c. alone (FIG. 9B)): devoid of effect per se
3 | CCN(CC)CCc1cccc(-c2c(C)nn(C)c2C)c1 [Chemical Example 3, Diethyl-{2-[3-(1,3,5-trimethyl-1H-pyrazol-4-yl)-phenyl]-ethyl}-amine] | 41.5 | 4.8 | 98.1 | –
4 | CCN(CC)CCc1cccc(-c2c(C)cccc2C)c1 [Chemical Example 11, [2-(2′,6′-Dimethyl-biphenyl-3-yl)-ethyl]-diethyl-amine] | 62.3 | -13.7 | 98.2 | –
5 | CN1CC[C@]23c4c5ccc(O)c4O[C@H]2[C@@H](O)C=C[C@H]3[C@H]1C5 [morphine] | – | – | – | analgesic effect, FPL, Tolerant group ([4]; FIG. 10A): reduced; analgesic effect, HPL, Tolerant group ([4]; FIG. 10B): reduced; analgesic effect, Jump, Tolerant group ([4]; FIG. 11): reduced; analgesic effect, tail flick, Tolerant group [5]: significantly reduced; ED50 ([6]; read-out: ED50, Fore Paw Licking (FPL)): 24 mg/kg; ED50 ([6]; read-out: ED50, Hind Paw Licking (HPL)): 9.28 mg/kg; ED50 ([6]; read-out: ED50, Jumping): 3.19 mg/kg
6 | Cc1nn(C)c(C)c1-c1cccc2c1CCC(N(C)C)C2 (stereo not shown) [Chemical Example K, Dimethyl-[5-(1,3,5-trimethyl-1H-pyrazol-4-yl)-1,2,3,4-tetrahydro-naphthalen-2-yl]-amine] | – | – | – | IC50 [1]: 3.9 nM; inhibition at 0.1 µM [1, 9]: 91.3%; inhibition at 0.01 µM [1, 10]: 38.8%
7 | CCCN(CCC)CCc1cccc(-c2ccccc2OC)c1 [Chemical Example 24, [2-(2′-Methoxy-biphenyl-3-yl)-ethyl]-dipropyl-amine] | 37.8 | -1.8 | 92.4 | –
8 | COc1ccccc1-c1cccc(CCN(C)C)c1 [Chemical Example 21, [2-(2′-Methoxy-biphenyl-3-yl)-ethyl]-dimethyl-amine] | 69.2 | 20 | 95.4 | –
9 | Cc1nn(C)c(C)c1-c1cccc2c1CC[C@@H](N(C)C)C2 [Chemical Example J, (2R)-Dimethyl-[5-(1,3,5-trimethyl-1H-pyrazol-4-yl)-1,2,3,4-tetrahydro-naphthalen-2-yl]-amine hydrochloride] | – | – | – | inhibition at 1 µM [1, 8]: 59.6%; inhibition at 0.1 µM [1, 9]: 9.6%; inhibition at 0.01 µM [1, 10]: -1.8%
10 | CCCN(CCC)C1CCc2cccc(O)c2C1 (stereo not shown) [8-OH-DPAT] | – | – | – | agonist classification on the 5-HT7 receptor [7]: agonist
11 | CN[C@H]1CCc2c(cccc2-c2c(C)nn(C)c2C)C1 [Chemical Example H, (2S)-Methyl-[5-(1,3,5-trimethyl-1H-pyrazol-4-yl)-1,2,3,4-tetrahydro-naphthalen-2-yl]-amine hydrochloride] | – | – | – | IC50 [1]: 2.3 nM; inhibition at 1 µM [1, 8]: 98.1%; inhibition at 0.1 µM [1, 9]: 97.8%; inhibition at 0.01 µM [1, 10]: 86.1%
12 | COc1cccc(OC)c1-c1cccc(CCN(C)C)c1 [Chemical Example 13, [2-(2′,6′-Dimethoxy-biphenyl-3-yl)-ethyl]-dimethyl-amine] | 60.5 | 54.4 | 105 | –
13 | Cc1cccc(S(=O)(=O)N(C)[C@H](C)CCN2CCC(C)CC2)c1.Cl [SB-258719, (R)-3,N-Dimethyl-N-(1-methyl-3-(4-methylpiperidin-1-yl)propyl)benzene sulfonamide hydrochloride] | – | – | – | change in the morphine effect, tail flick ([3]; SB-258719 10 mg/kg + varying doses of morphine s.c.): did not produce any significant change; effect on potenciation of morphine analgesia exerted by Chemical Example 1, tail flick ([3]; morphine 2 mg/kg + Chemical Example 1 10 mg/kg + SB-258719 10 mg/kg s.c. (FIG. 9C)): reverted
14 | CCCN(CCC)CCc1cccc(-c2c(C)nn(C)c2C)c1 [Chemical Example 4, Dipropyl-{2-[3-(1,3,5-trimethyl-1H-pyrazol-4-yl)-phenyl]-ethyl}-amine] | 98.7 | 48.6 | 90 | –
15 | CN(C)CCc1cccc(-c2cnn(C)c2)c1 [Chemical Example 17, Dimethyl-{2-[3-(1-methyl-1H-pyrazol-4-yl)-phenyl]-ethyl}-amine] | 16.9 | -1 | 46 | –
16 | CCCN(CCC)CCc1cccc(-c2c(C)cccc2C)c1 [Chemical Example 12, [2-(2′,6′-Dimethyl-biphenyl-3-yl)-ethyl]-dipropyl-amine] | 92.2 | 43.8 | 93.3 | –
17 | Cc1cccc(C)c1-c1cccc(CCN(C)C)c1 [Chemical Example 9, [2-(2′,6′-Dimethyl-biphenyl-3-yl)-ethyl]-dimethyl-amine] | 88.9 | 65.9 | 105 | –

From patent publication US20100197717A1, “COMBINATION OF A 5HT7 RECEPTOR LIGAND AND AN OPIOID RECEPTOR LIGAND” (priority 2007, published 2010)
